According to patent US10638755B2, “Antimicrobial compositions” (Symrise AG, priority 2013, dated 2020):
Like-named read-outs stand apart in the source and are kept apart here. Each block holds one compound with its values, some of them ahead of it.

Key:
Candida albicans = assay: Minimum inhibitory concentration (MIC) according to DIN 58940 and Kull Synergy Index; format: cell-based; conditions: for MIC: Candida albicans
Pseudomonas aeruginosa = assay: as above; format: cell-based; conditions: for MIC: Pseudomonas aeruginosa
Escherichia coli = assay: as above; format: cell-based; conditions: for MIC: Escherichia coli
Aspergillus brasiliensis = assay: as above; format: cell-based; conditions: for MIC: Aspergillus brasiliensis
Staphylococcus aureus = assay: as above; format: cell-based; conditions: for MIC: Staphylococcus aureus
A. brasiliensis = assay: Colony counts in formulation over 28 days and Kull Synergy Index against A. brasiliensis; format: cell-based, Aspergillus brasiliensis
Description: To calculate the synergism between compounds of formula (I) and other antimicrobial actives, the Kull equation^1 2 was used SI=(Cmixture×PA)/CA+(Cmixture×PB)/CB (I) where • SI is the Synergy Index according to Kull^1), 2) • CA is the cell count for substance A • CB is the cell count for substance B • Cmixture is the cell count for the mixture of substances A and B • PA is the proportion of the substance A in the mixture • PB is the proportion of the substance B in the mixture.
Colony counts of <100 were arbitrarily set to 100, in order to allow for synergy calculations with the above equation. The abbreviation “n.a.” means not applicable.

[1] = chemical in vitro assay; constituents of Tagetes mendocina; cited from earlier work
[2] = tested on: subcuteaneous inflammation; conditions: administered intraperitoneally; Il Farmaco 2000; cited from earlier work
mold = conditions: moist alfalfa hay; Agronomy Journal 1955; cited from earlier work
[3] = day 0, 1.0% (total) in formulation
[4] = day 2, 1.0% (total) in formulation
[5] = day 7, 1.0% (total) in formulation
[6] = day 14, 1.0% (total) in formulation
[7] = day 28, 1.0% (total) in formulation

Structure (SMILES): OCCCO [1,3-Propanediol]
MIC values Candida albicans (Candida albicans; DIN 58940): 100000 ppm | MIC values Pseudomonas aeruginosa (Pseudomonas aeruginosa; DIN 58940): 100000 ppm | MIC values Escherichia coli (Escherichia coli; DIN 58940): 100000 ppm | MIC values Aspergillus brasiliensis (Aspergillus brasiliensis; DIN 58940): 150000 ppm | MIC values Staphylococcus aureus (Staphylococcus aureus; DIN 58940): 125000 ppm

Structure (SMILES): CCCCCCCOCC(O)CO (stereo not drawn) [3HOPD, 3-heptyloxy-1,2-propanediol]
Colony counts (A. brasiliensis; [3]): 220.000 cfu/g formulation | Relative colony counts (A. brasiliensis; [3]): 1.0000 | Colony counts (A. brasiliensis; [4]): 320.000 cfu/g formulation | Relative colony counts (A. brasiliensis; [4]): 1.4545 | Colony counts (A. brasiliensis; [5]): 340.000 cfu/g formulation | Relative colony counts (A. brasiliensis; [5]): 1.5455 | Colony counts (A. brasiliensis; [6]): 300.000 cfu/g formulation | Relative colony counts (A. brasiliensis; [6]): 1.3636 | Colony counts (A. brasiliensis; [7]): 170.000 cfu/g formulation | Relative colony counts (A. brasiliensis; [7]): 0.7727

Structure (SMILES): CCCCC(CC)COCC(O)CO (stereo not drawn) [EHG, ethylhexyl glycerin]
MIC values Candida albicans (Candida albicans): 2000 ppm | MIC values Pseudomonas aeruginosa (Pseudomonas aeruginosa): >20000 ppm | Colony counts (A. brasiliensis; [3]): 315.000 cfu/g formulation | Relative colony counts (A. brasiliensis; [3]): 0.5048 | Colony counts (A. brasiliensis; [4]): 159.000 cfu/g formulation | Relative colony counts (A. brasiliensis; [4]): 0.4762 | Colony counts (A. brasiliensis; [5]): 150.000 cfu/g formulation | Relative colony counts (A. brasiliensis; [5]): 0.9635 | Colony counts (A. brasiliensis; [6]): 304.000 cfu/g formulation | Relative colony counts (A. brasiliensis; [6]): 0.9635 | Colony counts (A. brasiliensis; [7]): 304.000 cfu/g formulation | Relative colony counts (A. brasiliensis; [7]): 0.5048 | MIC values Escherichia coli (Escherichia coli): 2500 ppm | MIC values Aspergillus brasiliensis (Aspergillus brasiliensis): 2000 ppm | MIC values Staphylococcus aureus (Staphylococcus aureus): 2000 ppm

Structure (SMILES): CCCCCCCOCC(O)CO (stereo not drawn) [Heptylglycerin]
MIC values Candida albicans (Candida albicans; DIN 58940): 2000 ppm | MIC values Pseudomonas aeruginosa (Pseudomonas aeruginosa; DIN 58940): 5000 ppm | MIC values Escherichia coli (Escherichia coli; DIN 58940): 2000 ppm | MIC values Aspergillus brasiliensis (Aspergillus brasiliensis; DIN 58940): 1000 ppm | MIC values Staphylococcus aureus (Staphylococcus aureus; DIN 58940): 2500 ppm

Structure (SMILES): CCCCCCCCOCC(O)CO (stereo not drawn) [Octylglycerin]
MIC values Candida albicans (Candida albicans; DIN 58940): 1000 ppm | MIC values Pseudomonas aeruginosa (Pseudomonas aeruginosa; DIN 58940): >2000 ppm | MIC values Escherichia coli (Escherichia coli; DIN 58940): 1000 ppm | MIC values Aspergillus brasiliensis (Aspergillus brasiliensis; DIN 58940): 500 ppm | MIC values Staphylococcus aureus (Staphylococcus aureus; DIN 58940): 1000 ppm

The next lines start with results.

MIC (Candida albicans; DIN 58940): 5000 µg/mL | MIC (Pseudomonas aeruginosa; DIN 58940): 5000 µg/mL | MIC (Escherichia coli; DIN 58940): 2500 µg/mL | MIC (Aspergillus brasiliensis; DIN 58940): 1000 µg/mL | MIC (Staphylococcus aureus; DIN 58940): 5000 µg/mL
Structure (SMILES): CCCCCCC(O)CO (stereo not drawn) [1,2-Octanediol]

MIC (Candida albicans; DIN 58940): 5000 µg/mL | MIC (Pseudomonas aeruginosa; DIN 58940): 2000 µg/mL | MIC (Escherichia coli; DIN 58940): 2000 µg/mL | MIC (Aspergillus brasiliensis; DIN 58940): 2000 µg/mL | MIC (Staphylococcus aureus; DIN 58940): 2000 µg/mL
Structure (SMILES): OCCCc1ccccc1 [3-Phenylpropanol]

MIC (Candida albicans; DIN 58940): 6000 µg/mL | MIC (Pseudomonas aeruginosa; DIN 58940): 4000 µg/mL | MIC (Escherichia coli; DIN 58940): 4000 µg/mL | MIC (Aspergillus brasiliensis; DIN 58940): 4000 µg/mL | MIC (Staphylococcus aureus; DIN 58940): 6000 µg/mL
Structure (SMILES): CC(=O)c1ccc(O)cc1 [4HAP, 4-hydroxyacetophenone]
antioxidant activity [1]: one of the active constituents | anti-inflammatory activity [2]: reducing subcuteaneous inflammation | Colony counts (A. brasiliensis; [3]): 300.000 cfu/g formulation | Relative colony counts (A. brasiliensis; [3]): 1.0000 | Colony counts (A. brasiliensis; [4]): 56.000 cfu/g formulation | Relative colony counts (A. brasiliensis; [4]): 0.1867 | Colony counts (A. brasiliensis; [5]): 1.900 cfu/g formulation | Relative colony counts (A. brasiliensis; [5]): 0.0063 | Colony counts (A. brasiliensis; [6]): 1.900 cfu/g formulation | Relative colony counts (A. brasiliensis; [6]): 0.0063 | Colony counts (A. brasiliensis; [7]): <100 cfu/g formulation | Relative colony counts (A. brasiliensis; [7]): 0.0003 | prevention of mold growth (mold): not prevent mold growth

MIC values Candida albicans (Candida albicans; DIN 58940): 20000 ppm | MIC values Pseudomonas aeruginosa (Pseudomonas aeruginosa; DIN 58940): 20000 ppm | MIC values Escherichia coli (Escherichia coli; DIN 58940): 10000 ppm | MIC values Aspergillus brasiliensis (Aspergillus brasiliensis; DIN 58940): 20000 ppm | MIC values Staphylococcus aureus (Staphylococcus aureus; DIN 58940): 20000 ppm
Structure (SMILES): OCC(O)COCc1ccccc1 (stereo not drawn) [Benzylglycerin]

MIC (Candida albicans; DIN 58940): 20000 µg/mL | MIC (Pseudomonas aeruginosa; DIN 58940): 10000 µg/mL | MIC (Escherichia coli; DIN 58940): 10000 µg/mL | MIC (Aspergillus brasiliensis; DIN 58940): 10000 µg/mL | MIC (Staphylococcus aureus; DIN 58940): 20000 µg/mL
Structure (SMILES): CCCCC(O)CO (stereo not drawn) [HD, 1,2-Hexanediol]
Colony counts (A. brasiliensis; day 0, 3.0% in formulation): 305.000 cfu/g formulation | Relative colony counts (A. brasiliensis; day 0, 3.0% in formulation): 1.0000 | Colony counts (A. brasiliensis; day 2, 3.0% in formulation): 306.000 cfu/g formulation | Relative colony counts (A. brasiliensis; day 2, 3.0% in formulation): 1.0033 | Colony counts (A. brasiliensis; day 7, 3.0% in formulation): 266.000 cfu/g formulation | Relative colony counts (A. brasiliensis; day 7, 3.0% in formulation): 0.8721 | Colony counts (A. brasiliensis; day 14, 3.0% in formulation): 96.000 cfu/g formulation | Relative colony counts (A. brasiliensis; day 14, 3.0% in formulation): 0.3148 | Colony counts (A. brasiliensis; day 28, 3.0% in formulation): <100 cfu/g formulation | Relative colony counts (A. brasiliensis; day 28, 3.0% in formulation): 0.0003

MIC values Candida albicans (Candida albicans; DIN 58940): 6000 ppm | MIC values Pseudomonas aeruginosa (Pseudomonas aeruginosa; DIN 58940): 6000 ppm | MIC values Escherichia coli (Escherichia coli; DIN 58940): 4000 ppm | MIC values Aspergillus brasiliensis (Aspergillus brasiliensis; DIN 58940): 4000 ppm | MIC values Staphylococcus aureus (Staphylococcus aureus; DIN 58940): 6000 ppm
Structure (SMILES): CCCCCCOC[C@@H](O)CO [Hexylglycerin]
